According to patent US20250222124A1, “PROTEIN CONJUGATES WITH MULTIPLE PAYLOADS AND METHODS FOR MAKING THE SAME” (GLYCO-THERAPY BIOTECHNOLOGY CO., LTD., priority 2022, published 2025):

Test system: HpFT-2 (Helicobacter pylori α1,3 fucosyltrasferase)
Test: Conversion efficiency of α1,3 fucosyltrasferase towards GDP-fucose derivatives with different jointer on the antibodies (LC-MS)
Assay type: biochemical
Details: substrate 1 mM, HpFT-2 0.5 mg/mL
Method: Trastuzumab-(GalNAzβ1,4)GlcNAc (2 mg/mL) was incubated with GDP-FAzP4Biotin (1 mM) or GDP-FAmP4Biotin (1 mM) and HpFT-2 (0.5 mg/mL) in 50 mM Tris-HCl buffer (pH 7.5) with 5 mM MgCl2 at 30° C. for 2 hours. […] The reaction mixtures were then quenched by adding LacNAc (final concentration 10 mM) and purified with protein A resin and analyzed by LC-MS respectively.

[1] = antibody Trastuzumab-(Fucα1,6)(Galβ1,4)GlcNAc 2 mg/mL, reaction time 10 min, average MAR/2*100%
[2] = antibody Trastuzumab-(GalNAzβ1,4)GlcNAc 2 mg/mL, reaction time 2 h, average MAR/2*100%
[3] = antibody Trastuzumab-(Galβ1,4)GlcNAc 2 mg/mL, reaction time 10 min, average MAR/2*100%

SMILES | % of conversion [1] [%] | % of conversion [2] [%] | % of conversion [3] [%] | % of conversion (antibody Trastuzumab-G2F 2 mg/mL, reaction time 2 h, average MAR/4*100%) [%]
Nc1nc2c(ncn2[C@@H]2O[C@H](COP(=O)(O)OP(=O)(O)O[C@H]3OC(CNC(=O)CCOCCOCCOCCOCCNC(=O)CCCC[C@@H]4SC[C@@H]5NC(=O)N[C@@H]54)[C@@H](O)C(O)C3O)C(O)C2O)c(=O)[nH]1 (stereo partly shown) [GDP-FAmP4Biotin] | 42 ± 5.3 | 77 ± 5.0 | 83 ± 1.2 | 
Nc1nc2c(ncn2[C@@H]2O[C@H](COP(=O)(O)OP(=O)(O)O[C@H]3OC(Cn4cc(COCCOCCOCCOCCNC(=O)CCCC[C@@H]5SC[C@@H]6NC(=O)N[C@@H]65)nn4)[C@@H](O)[C@H](O)C3O)C(O)[C@@H]2O)c(=O)[nH]1 (stereo partly shown) [GDP-FAzP4Biotin] | 30 ± 4.6 | 13 ± 4.7 | 60 ± 0.6 | 9 ± 1.2
